In ChEMBL document CHEMBL6121000, “Corosolic acid and its derivatives targeting MCCC1 against insulin resistance and their hypoglycemic effect on type 2 diabetic mice” (Eur J Med Chem, 2025) one finds viability, inhibition and Activity data, which are given here for 27 molecules.

Data set [1] is described as follows: (§1) Cytotoxicity against human HepG2 cells assessed as cell viability at 80 uM incubated for 24 hrs by CCK8 assay relative to control. It is filed as toxicity, cell-based. To be noted: HepG2 cells, read-out: Activity. For orientation: Formazan colour is commonly taken as a measure of viable cells.
Data set [2] has as its system HepG2. Put plainly: Inhibition of insulin resistance in human HepG2 cells assessed as decrease in GlcN-induced glucose production at 20 uM preincubated for 1 hr followed by GlcN treatment for 18 hrs and subsequent insulin stimulation for 20 mins. It is filed as functional, cell-based. To be noted: time 19.33 hrs.
Data set [3] has as its system HepG2. Put plainly: Cytotoxicity against human HepG2 cells assessed as cell survival at 10 to 40 uM by MTT assay. In kind it is toxicity, cell-based. As to conditions: hepg2, 40 µM, dose 10-40 µM.
Data set [4] has as its system HepG2. Put plainly: Lipid lowering activity in human HepG2 cells assessed as inhibition of FFA-induced triglyceride content at 20 uM preincubated for 1 hr followed by FFA treatment for 24 hrs relative to control. It is filed as functional.
The subject of data set [5] is Mus musculus. In words: Hypoglycemic activity in HFD-fed STZ-induced diabetic C57BL/6J mouse model assessed as improvement in weight loss at 200 mg/kg, po administered everyday for 3 weeks. It is filed as functional, organism-based.
Data set [6] has as its system HepG2. Described as §1. In kind it is toxicity, cell-based. As to conditions: hepg2, 24 h, 80 µM.

The source made the active and inactive calls. The rule behind the calls is not given here.

As usually defined, the inhibition is the drop in the measured response relative to a control, in per cent. Turning to `CCOC(=O)[C@H](CC(C)C)NC(=O)[C@]12CC[C@@H](C)[C@H](C)[C@H]1C1=CC[C@@H]3[C@@]4(C)C[C@@H](O)[C@H](O)C(C)(C)[C@@H]4CC[C@@]3(C)[C@]1(C)CC2`, the viability at 24 h, 80 µM in data set [1] is > 80%. Also, the inhibition entry in data set [2] is “Active”. With `CC(=O)O[C@@H]1C[C@]2(C)[C@H]3CC=C4[C@@H]5[C@@H](C)[C@H](C)CC[C@]5(C(=O)NCCCN)CC[C@@]4(C)[C@]3(C)CC[C@H]2C(C)(C)[C@H]1OC(C)=O`, in data set [1], the viability at 24 h, 80 µM was 8.9%. Moreover, in data set [2], the inhibition entry is “Active”. Consider `CC(=O)O[C@@H]1C[C@]2(C)[C@H]3CC=C4[C@@H]5[C@@H](C)[C@H](C)CC[C@]5(C(=O)O)CC[C@@]4(C)[C@]3(C)CC[C@H]2C(C)(C)[C@H]1OC(C)=O`, for which the viability at 24 h, 80 µM in data set [1] was 58.7%. As to `C[C@H]1[C@H](C)CC[C@]2(C(=O)NCCCNC(=O)CCCC[C@H]3SC[C@H]4NC(=O)N[C@H]43)CC[C@]3(C)C(=CC[C@@H]4[C@@]5(C)C[C@@H](O)[C@H](O)C(C)(C)[C@@H]5CC[C@]43C)[C@H]12`, in data set [3], the Activity result is given as “Non-toxic”. Take `COC(=O)CCCCNC(=O)[C@]12CC[C@@H](C)[C@H](C)[C@H]1C1=CC[C@@H]3[C@@]4(C)C[C@@H](O)[C@H](O)C(C)(C)[C@@H]4CC[C@@]3(C)[C@]1(C)CC2`: the viability at 24 h, 80 µM in data set [1] was > 80%. Also, the inhibition entry in data set [2] was “Active”.

With `COC(=O)C(Cc1ccc(OC)cc1)NC(=O)[C@]12CC[C@@H](C)[C@H](C)[C@H]1C1=CC[C@@H]3[C@@]4(C)C[C@@H](O)[C@H](O)C(C)(C)[C@@H]4CC[C@@]3(C)[C@]1(C)CC2` (stereo partly specified), the viability at 24 h, 80 µM in data set [1] was > 80%. In addition, the inhibition entry in data set [2] was “Active”. Take `CCOC(=O)[C@H](C)NC(=O)[C@]12CC[C@@H](C)[C@H](C)[C@H]1C1=CC[C@@H]3[C@@]4(C)C[C@@H](O)[C@H](O)C(C)(C)[C@@H]4CC[C@@]3(C)[C@]1(C)CC2`: the viability at 24 h, 80 µM in data set [1] was > 80%. As for `CCOC(=O)[C@H](CO)NC(=O)[C@]12CC[C@@H](C)[C@H](C)[C@H]1C1=CC[C@@H]3[C@@]4(C)C[C@@H](O)[C@H](O)C(C)(C)[C@@H]4CC[C@@]3(C)[C@]1(C)CC2`, the viability at 24 h, 80 µM in data set [1] is > 80%. Also, the inhibition entry in data set [2] is “Active”.

For `CC(=O)O[C@H]1CC[C@]2(C)[C@H]3CC=C4[C@@H]5[C@@H](C)[C@H](C)CC[C@]5(C(=O)OCc5ccccc5)CC[C@@]4(C)[C@]3(C)CC[C@H]2C1(C)C`, the viability at 24 h, 80 µM in data set [1] is > 80%. The inhibition at 20 µM in data set [4] was determined as 58.5%.

With `CCOC(=O)[C@H](C)NC(=O)[C@]12CC[C@@H](C)[C@H](C)[C@H]1C1=CC[C@@H]3[C@@]4(C)C[C@@H](OC(C)=O)[C@H](OC(C)=O)C(C)(C)[C@@H]4CC[C@@]3(C)[C@]1(C)CC2`, the viability at 24 h, 80 µM in data set [1] was > 80%. Moreover, the inhibition entry in data set [2] was “Active”. Moreover, the inhibition at 20 µM in data set [4] amounted to 63.1%. Take `C[C@H]1[C@H](C)CC[C@]2(C(=O)O)CC[C@]3(C)C(=CC[C@@H]4[C@@]5(C)CC[C@H](O)C(C)(C)[C@@H]5CC[C@]43C)[C@H]12` [URSOLIC ACID]: in data set [1], the viability at 24 h, 80 µM was determined as 7.85%. For `CN(C)C(=N)NC(=N)N`, the result in data set [5] was Active. As for `C[C@H]1[C@H](C)CC[C@]2(C(=O)On3nnc4ccccc43)CC[C@]3(C)C(=CC[C@@H]4[C@@]5(C)C[C@@H](O)[C@H](O)C(C)(C)[C@@H]5CC[C@]43C)[C@H]12`, the viability at 24 h, 80 µM in data set [1] was > 80%. Regarding `COC(=O)[C@H](Cc1ccccc1)NC(=O)[C@]12CC[C@@H](C)[C@H](C)[C@H]1C1=CC[C@@H]3[C@@]4(C)C[C@@H](O)[C@H](O)C(C)(C)[C@@H]4CC[C@@]3(C)[C@]1(C)CC2`, in data set [1], the viability at 24 h, 80 µM is > 80%. In addition, in data set [2], the inhibition result was “Active”.

Take `CC(=O)O[C@@H]1C[C@]2(C)[C@H]3CC=C4[C@@H]5[C@@H](C)[C@H](C)CC[C@]5(C(=O)NCCCNC(=O)OCC5c6ccccc6-c6ccccc65)CC[C@@]4(C)[C@]3(C)CC[C@H]2C(C)(C)[C@H]1OC(C)=O`: the viability at 24 h, 80 µM in data set [1] is > 80%.

Regarding `CCOC(=O)CNC(=O)[C@]12CC[C@@H](C)[C@H](C)[C@H]1C1=CC[C@@H]3[C@@]4(C)C[C@@H](O)[C@H](O)C(C)(C)[C@@H]4CC[C@@]3(C)[C@]1(C)CC2`, in data set [1], the viability at 24 h, 80 µM was > 80%. With `CCOC(=O)[C@H](CS)NC(=O)[C@]12CC[C@@H](C)[C@H](C)[C@H]1C1=CC[C@@H]3[C@@]4(C)C[C@@H](O)[C@H](O)C(C)(C)[C@@H]4CC[C@@]3(C)[C@]1(C)CC2`, the viability at 24 h, 80 µM in data set [1] is > 80%. Also, the inhibition entry in data set [2] was “Active”.

Regarding `C[C@H]1[C@H](C)CC[C@]2(C(=O)OCc3ccccc3)CC[C@]3(C)C(=CC[C@@H]4[C@@]5(C)CCC(=O)C(C)(C)[C@@H]5CC[C@]43C)[C@H]12`, the viability at 24 h, 80 µM in data set [1] was > 80%. The same measure, in the same setting: then `C[C@H]1[C@H](C)CC[C@]2(C(=O)NCCCN)CC[C@]3(C)C(=CC[C@@H]4[C@@]5(C)C[C@@H](O)[C@H](O)C(C)(C)[C@@H]5CC[C@]43C)[C@H]12`, with > 80%; and `C[C@H]1[C@H](C)CC[C@]2(C(=O)NCCCNC(=O)c3ccccc3)CC[C@]3(C)C(=CC[C@@H]4[C@@]5(C)C[C@@H](O)[C@H](O)C(C)(C)[C@@H]5CC[C@]43C)[C@H]12`, with > 80%.

Take `C[C@H]1[C@H](C)CC[C@]2(C(=O)OCc3ccccc3)CC[C@]3(C)C(=CC[C@@H]4[C@@]5(C)CC[C@H](O)C(C)(C)[C@@H]5CC[C@]43C)[C@H]12`: in data set [1], the viability at 24 h, 80 µM is > 80%. In data set [2], the inhibition entry was “Active”. `C[C@H]1[C@H](C)CC[C@]2(C(=O)OCc3ccccc3)CC[C@]3(C)C(=CC[C@@H]4[C@@]5(C)C[C@@H](O)[C@H](O)C(C)(C)[C@@H]5CC[C@]43C)[C@H]12`: the viability at 24 h, 80 µM in data set [1] was 12.3%.

In the case of `C[C@H]1[C@H](C)CC[C@]2(C(=O)NC(=O)NC3CC3)CC[C@]3(C)C(=CC[C@@H]4[C@@]5(C)C[C@@H](O)[C@H](O)C(C)(C)[C@@H]5CC[C@]43C)[C@H]12`, the viability at 24 h, 80 µM in data set [1] is > 80%. In data set [2], the inhibition entry was “Active”. Taken in the same sequence, the figures for `CC(=O)OC[C@H]1O[C@H](OC(=O)[C@]23CC[C@@H](C)[C@H](C)[C@H]2C2=CC[C@@H]4[C@@]5(C)C[C@@H](O)[C@H](O)C(C)(C)[C@@H]5CC[C@@]4(C)[C@]2(C)CC3)C(OC(C)=O)[C@H](OC(C)=O)C1OC(C)=O` (single isomer, unassigned) were > 80% and “Active”. Taken in the same sequence, the figures for `CCCCC(=O)NCCCNC(=O)[C@]12CC[C@@H](C)[C@H](C)[C@H]1C1=CC[C@@H]3[C@@]4(C)C[C@@H](O)[C@H](O)C(C)(C)[C@@H]4CC[C@@]3(C)[C@]1(C)CC2` were > 80% and “Active”. With `C[C@H]1[C@H](C)CC[C@]2(C(=O)NCCCCCC(=O)O)CC[C@]3(C)C(=CC[C@@H]4[C@@]5(C)C[C@@H](O)[C@H](O)C(C)(C)[C@@H]5CC[C@]43C)[C@H]12`, the Activity result in data set [6] was “Non-toxic”. As for `C[C@H]1[C@H](C)CC[C@]2(C(=O)O[C@H]3O[C@H](CO)C(O)[C@@H](O)[C@H]3O)CC[C@]3(C)C(=CC[C@@H]4[C@@]5(C)C[C@@H](O)[C@H](O)C(C)(C)[C@@H]5CC[C@]43C)[C@H]12` (single isomer, unassigned), in data set [1], the viability at 24 h, 80 µM stood at 64.5%.
